Results on five molecules are retold here after paper PMC5056392, “CD4-mimetic sulfopeptide conjugates display sub-nanomolar anti-HIV-1 activity and protect macaques against a SHIV162P3 vaginal challenge” (Scientific Reports, 2016).

By CC50 is commonly meant the concentration at which the toxic effect on the cells reaches its halfway point. Low values mean greater toxicity to the cells, high ones lower toxicity to the cells.

Data set [1] concerns SHIV162P3. Conditions: TZM-bl cells; cited from earlier work. The source says:
(§1) Similarly, HEC gel formulated cyanovirin was s ...

Data set [2] deals with SHIV. Conditions: cited from earlier work.
From the text: as §1

The test system of data set [3] is HIV-1. Conditions: vaginal gel formulation (Tenofovir) or vaginal ring (Dapivirin); cited from earlier work. The protocol: Microbicides offer distinct advantages as their use should reduce side effects associated with systemic treatment and they could prevent the establishment of viral founder populations. Up to now several molecules targeting the attachment and entry of HIV were tested in clinical trials, including surfactants, such as nonoxynol–9 and C31G that disrupt the viral lipid envelope and non-specific polyanions, such as carrageenan, cellulose sulfate, as well as a sulfonated naphthalene derivative (PRO2000), presumably mimicking heparan sulfate (HS) and blocking virus-cell interactions. ...

Data set [4] relates to TZM-bl cells. As to the kind of experiment: WST-1 cytotoxicity assay. It counts as cell-based. Conditions: Table 2, 50% cytotoxic concentration, WST-1, 48 h. The protocol:
The water soluble tetrazolium-1 (WST-1) cell proliferation assay is based on the cleavage of the tetrazolium salt WST-1 to a formazan dye by a complex cellular mechanism. Because this bioreduction is dependent on the glycolytic production of NAD(P)H in viable cells, the amount of formazan dye formed is correlates directly to the number of viable cells in a culture. Quantification is done by measuring absorbance at 450 nm in a multiwell plate reader. TZMbl cells (10^4 cells/well) were plated in a 96-well plate and a serial dilution of compound was added. 48 h later, cell proliferation reagent was added and cell viability was measured compared to untreated control cultures. Cell viability was plotted against the compound concentration and non-linear regression analysis was performed to calculate the 50% cytotoxic concentration (CC50).

Data set [5] has as its system HIV-1 MN. Put plainly: TZM-bl antiviral assay, MN. The format is cell-based. Conditions: Human immunodeficiency virus 1; Table 2; B-X4; 10^-3 MOI, TZM-bl cells, 48 h; mean of at least 2 independent experiments, triplicates. On the procedure:
(§2) The IC50 of the various mCD4-conjugates were measured in TZM-bl cells (NIH AIDS Reagent Program, Germantown, MD 20874, US). This cell line expresses high densities of CD4, CCR5 and CXCR4. It contains a luciferase reporter gene under control of HIV LTR, which will be transcribed and translated into luciferase protein, if the cells get infected with HIV and start producing Tat. Briefly, 50 μl of TZM-bl cells (1 × 10^5 cells/mL) supplemented with 30 μg/mL DEAE dextran were incubated with a 50 μl of a 10-fold serial dilution of the compounds under investigation in 96-well flat bottom plates, prior to inoculation with 50 μl of various viruses (see Tables & and 2; 50, 100 or 200 TCID50 was used depending on the virus). As a positive control, 50 μl of compound-free medium was used and as a negative control, 100 μl of medium was added to 100 μl of TZM-bl cells. All conditions were done in triplicates. The plates were incubated for 48 hours (37 °C, 5% CO2). […] Next, the luciferase activity was measured using a TriStar LB941 luminometer (Berthold Technologies GmbH & Co. KG., Bad Wildbad, Germany) and expressed in relative light units (RLU) as a percentage of positive control wells. IC50 were calculated in GraphPad Prism 5.03 using non-linear regression (GraphPad Software, San Diego, CA, USA).

In data set [6] the test system is SHIV162P3. Put plainly: TZM-bl antiviral assay, SHIV162P3. It counts as cell-based, SHIV. Conditions: Table 2; B-R5; 10^-3 MOI, TZM-bl cells, 48 h; mean of at least 2 independent experiments, triplicates. On the procedure: as §2
The subject of data set [7] is HIV-1 pZM247Fv2. Put plainly: microbe, parasite or virus in culture. The format is cell-based. Conditions: Human immunodeficiency virus 1, TZM-bl, 48 h, read-out: IC50 pZM247Fv2. The protocol: (§3) The IC50 of the various mCD4-conjugates were measured in TZM-bl cells (NIH AIDS Reagent Program, Germantown, MD 20874, US). This cell line expresses high densities of CD4, CCR5 and CXCR4. It contains a luciferase reporter gene under control of HIV LTR, which will be transcribed and translated into luciferase protein, if the cells get infected with HIV and start producing Tat. Briefly, 50 μl of TZM-bl cells (1 × 10^5 cells/mL) supplemented with 30 μg/mL DEAE dextran were incubated with a 50 μl of a 10-fold serial dilution of the compounds under investigation in 96-well flat bottom plates, prior to inoculation with 50 μl of various viruses (see Tables & and 2; 50, 100 or 200 TCID50 was used depending on the virus). As a positive control, 50 μl of compound-free medium was used and as a negative control, 100 μl of medium was added to 100 μl of TZM-bl cells. All conditions were done in triplicates. The plates were incubated for 48 hours (37 °C, 5% CO2). Subsequently, 120 μL of supernatants were removed, 75 μl of the luciferase substrate Steadylite (Perkin Elmer, Life Sciences, Zaventem, Belgium) were added to the wells and the plates were incubated at room temperature on an orbital shaker for 10 minutes. Next, the luciferase activity was measured using a TriStar LB941 luminometer (Berthold Technologies GmbH & Co. KG., Bad Wildbad, Germany) and expressed in relative light units (RLU) as a percentage of positive control wells. IC50 were calculated in GraphPad Prism 5.03 using non-linear regression (GraphPad Software, San Diego, CA, USA).

For data set [8], the system named is HIV-1 VI824. As to the kind of experiment: microbe, parasite or virus in culture. The format is cell-based. Conditions: Human immunodeficiency virus 1, TZM-bl, 48 h, read-out: IC50 VI824. The protocol: as §3
Data set [9] has as its system HIV-1 pWITO.c/2474. As to the kind of experiment: microbe, parasite or virus in culture. The format is cell-based. Conditions: Human immunodeficiency virus 1, TZM-bl, 48 h, read-out: IC50 pWITO.c/2474. The protocol: as §3
For data set [10], the system named is HIV-1 p246F10. As to the kind of experiment: microbe, parasite or virus in culture. Conditions: Human immunodeficiency virus 1, TZM-bl, 48 h, read-out: IC50 P246F10. It counts as cell-based. The protocol: as §3
The subject of data set [11] is HIV-1 Ca10-3 (CRF01). Put plainly: microbe, parasite or virus in culture. The format is cell-based. Conditions: Human immunodeficiency virus 1, TZM-bl, 48 h, read-out: IC50 Ca10-3 (CRF01). On the procedure:
as §3

Data set [12] concerns HIV-1 MP568 (CRF02). As to the kind of experiment: microbe, parasite or virus in culture. It counts as cell-based. Conditions: Human immunodeficiency virus 1, TZM-bl, 48 h, read-out: IC50 MP568 (CRF02). The protocol: as §3
Data set [13] concerns HIV-1 pTHRO.c/2626. As to the kind of experiment: microbe, parasite or virus in culture. It counts as cell-based. Conditions: Human immunodeficiency virus 1, TZM-bl, 48 h, read-out: IC50 pTHRO.c/2626. On the procedure:
as §3

Data set [14] deals with HIV-1 VI1888 (CRF01). As to the kind of experiment: microbe, parasite or virus in culture. It counts as cell-based. Conditions: Human immunodeficiency virus 1, TZM-bl, 48 h, read-out: IC50 VI1888 (CRF01). The protocol: as §3
Data set [15] deals with HIV-1 pREJO.c/2864 cl2. As to the kind of experiment: microbe, parasite or virus in culture. It counts as cell-based. Conditions: Human immunodeficiency virus 1, TZM-bl, 48 h, read-out: IC50 pREJO.c/2864 cl2. The protocol: as §3
Data set [16] deals with HIV-1 IIIB. Put plainly: TZM-bl antiviral assay, IIIB. It counts as cell-based. Conditions: Human immunodeficiency virus 1, IIIB; Table 2; B-X4; 10^-3 MOI, TZM-bl cells, 48 h; mean of at least 2 independent experiments, triplicates. The protocol:
as §2

Data set [17] has as its system HIV strains from different subtypes. Put plainly: TZM-bl antiviral assay, whole panel of strains. Conditions: Human immunodeficiency virus 1, TZM-bl, read-out: active concentration across the panel. The format is cell-based, HIV-1. On the procedure:
as §2

For data set [18], the system named is HIV-1 Bal. As to the kind of experiment: TZM-bl antiviral assay, Bal. The format is cell-based. Conditions: Human immunodeficiency virus 1, BAL; Table 2; B-R5; 10^-3 MOI, TZM-bl cells, 48 h; mean of at least 2 independent experiments, triplicates. On the procedure: as §2
Data set [19] concerns HIV-1 VI820. Put plainly: TZM-bl antiviral assay, VI820. The format is cell-based. Conditions: Human immunodeficiency virus 1; Table 2; A-X4R5; 10^-3 MOI, TZM-bl cells, 48 h; mean of at least 2 independent experiments, triplicates. On the procedure:
as §2

Data set [20] concerns HIV-1 VI829. As to the kind of experiment: TZM-bl antiviral assay, VI829. The format is cell-based. Conditions: Human immunodeficiency virus 1; Table 2; C-R5; 10^-3 MOI, TZM-bl cells, 48 h; mean of at least 2 independent experiments, triplicates. The protocol: as §2
Data set [21] has as its system HIV-1 SF162. Put plainly: TZM-bl antiviral assay, SF162. The format is cell-based. Conditions: Human immunodeficiency virus 1; Table 2; B-R5; 10^-3 MOI, TZM-bl cells, 48 h; mean of at least 2 independent experiments, triplicates. On the procedure:
as §2

[22] abbreviates: HEC gel formulated, applied at 0.5 to 2 mM.

Like-named read-outs stand apart in the source and are kept apart here.

On to `COc1ccnc2[nH]cc(C(=O)C(=O)N3CCN(C(=O)c4ccccc4)C[C@H]3C)c12` [BMS-378806], for which the IC50 in data set [1] was 5.5 nM. Also, the protection in [2] (administered at 5.5 mM) is 75%.

Consider `Cc1cc(C)c(Nc2ccnc(Nc3ccc(C#N)cc3)n2)c(C)c1` [TMC120 Dapivirine, Dapivirine], for which the “reduction in HIV-1 acquisition” value in data set [3] is given as “up to 40%”. The same molecule registered a CC50 in data set [4] of 2524 nM. The IC50 was 1.5 nM in data set [5]; > 1000 nM in data set [6]; 2.3 nM in data set [7]; 1.2 nM in [8]; 1.1 nM in data set [9]; 1.4 nM in data set [10]. Besides, the IC50 in data set [11] turned out to be 1.2 nM; in [12] it was 1.1 nM; in data set [13], 1.9 nM; in data set [14] it was 2.1 nM; in [15], 1.6 nM; in data set [16], 0.84 nM. In addition, the IC50 in [17] is 1 to 2 nM; in data set [18] it was 1.7 nM; in data set [19], 2 nM; in data set [20] it was 1.3 nM; in data set [21], 1.3 nM.

`C[C@H](Cn1cnc2c(N)ncnc21)OCP(=O)(O)O` [Tenofovir]: in data set [3], the “reduction in HIV-1 acquisition” value is on record as “up to 40%”.

In the case of maraviroc, the protection in data set [2] (500 μM intravaginally) is 50%. For the same molecule, the macaques remaining uninfected in data set [2] (6 mM intravaginally) is 6 of 7.

B1: cyanovirin: HEC gel formulated cyanovirin (protein, UniProt P81180 1-101, looked up)
Cyanovirin-N: LGKFSQTCYNSAIQGSVLTSTCERTNGGYNTSSIDLNSVIENVDGSLKWQPSNFIETCRNTQLAGSSELAAECKTRAQQFVSTKINLDDHIANIDGTLKYE
modifications: HEC gel formulation
For the molecule B1, in data set [2] (setting [22]), the animals protected is reported as 5 out of 6 and the protection is reported as 83%.
